Measured values: patent publication US20230405151A1, “USE OF IRAK4 MODULATORS FOR GENE THERAPY” (Genzyme Corporation, priority 2022, published 2023)

What was measured:
[1] = test system: C57BL/6J mice injected with AAV (LacZ transgene); assay: In vivo mouse AAV model: CD8 TEM and lacZ tetramer staining of PBMCs and splenocytes; conditions: chow 30 mg/kg from 15 days prior to AAV injection; day 14 post AAV; versus AAV group; N=10
Description: In-vivo mice experiments. C57BL/6J mice were purchased from Jackson Laboratories. 6-8-week male mice were divided into 3 groups—PBS group, AAV group and AAV+IRAK4 group all groups with 10 mice each. Zimlovisertib IRAK4 inhibitor (Synonyms: PF-06650833) Cat. No.: HY-19836 (MedChemExpress) was mixed with mouse chow Catalog #2016, Teklad Global 16% Protein Rodent Diets https://www.inotivco.com/rodent-natural-ingredient-2016-diets at a dose of 30 mg/kg. AAV+IRAK4 group was fed the chow with Zimlovisertib IRAK4 inhibitor 15 days prior to AAV injection whereas PBS and AAV group were fed with mouse chow Catalog #2016, Teklad Global 16% Protein Rodent Diets https://www.inotivco.com/rodent-natural-ingredient-2016-diets. PBS group mice were injected intramuscularly with 100 ul PBS, AAV group was injected intramuscularly with 1e11 vg per quadricep muscle of both legs, 100 ul volume.
The same experiment design was followed with n=6 mice in each group PBS group, AAV group and AAV+IRAK4 degrader PROTAC IRAK4 degrader-1 Cat. No.: HY-129966 (MedChemExpress) that was mixed with chow at 100 mg/kg and fed to mice 15 days prior to AAV injection. […] AAV capsid used in the study had LacZ transgene. All animal experiments were conducted in accordance with the Institutional Animal Care and Use Committees at Sanofi, Framingham. Submandibular bleeds were performed weekly, and necropsy was performed three weeks post AAV injection.
PBMC isolation and surface staining. 120 ul blood was collected in K2EDTA coated tubes. The blood was mixed with DBPS at 1:1 ration and pipetted into a separate tube containing Ficoll (GE17-5442-02) to ensure no mixing of the blood and Ficoll phases. The mixture was centrifuged at 2000 RPM for 25 minutes at room temperature (9 acceleration and no braking). The buffy coat containing the peripheral blood mononuclear cells (PBMCs) was collected, transferred to a new tube, and centrifuged for five minutes at 400 RCF. PBMCs were washed three times with phosphate buffered saline (PBS) containing 1% fetal bovine serum (FBS) or fetal calf serum (FCS) and counted. The PBMC cells thus obtained were stained with different antibodies to quantify percentage of different immune cell subsets in peripheral blood.
PBMC CD8 TEM and lacZ tetramer staining. The PBMC was isolated from ˜120 μl of mouse blood, and it was transferred to a 96-well U-bottom plate. […]

[2] = molecular target: T1, IRAK4 protein (Homo sapiens, UniProt Q9NWZ3); assay: AlphaLISA assay of IRAK4 protein levels in cell lysates; format: cell-based; conditions: 16 nM, 80 nM, 400 nM and 2000 nM; AAV.SAN024 MOI 1e5 24 hrs
T1 construct: endogenous in cells; host or cells: primary human monocyte-derived dendritic cells from PBMC donors
T1 sequence (Q9NWZ3 1-460): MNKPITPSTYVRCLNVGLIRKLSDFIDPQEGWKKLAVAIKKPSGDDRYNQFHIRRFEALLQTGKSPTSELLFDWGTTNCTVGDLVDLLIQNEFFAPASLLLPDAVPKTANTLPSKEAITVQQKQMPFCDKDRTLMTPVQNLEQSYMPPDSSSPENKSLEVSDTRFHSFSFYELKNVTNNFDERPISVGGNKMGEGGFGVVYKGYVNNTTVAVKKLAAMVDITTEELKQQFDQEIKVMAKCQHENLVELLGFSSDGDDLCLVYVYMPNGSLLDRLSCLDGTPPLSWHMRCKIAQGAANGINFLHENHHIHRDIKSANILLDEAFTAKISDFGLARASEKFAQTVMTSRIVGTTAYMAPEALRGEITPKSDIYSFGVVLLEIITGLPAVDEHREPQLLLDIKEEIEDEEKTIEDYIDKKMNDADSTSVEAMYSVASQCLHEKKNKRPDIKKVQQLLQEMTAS
Description: AlphaLISA assay. This assay was performed to measure the levels of IRAK4 protein in the cells. The protocol was followed as per manufacturer's recommendation Perkin Elmer (Catalog #AL3117C). Briefly, cells were lysed and 5 μL of lysates were added to Anti-IRAK4 Acceptor Beads and incubated for 30 min at 23° C., then Biotinylated Anti-IRAK4 Antibody was added and incubated for 60 min at 23° C. Finally, SA-donor beads are added and 30 min later plates are read using EnVision-Alpha Reader (615 nm) https://resources.perkinelmer.com/lab-solutions/resources/docs/MAN_AlphaLISA_IRAK4_AL3117.pdf?_gl=1*7jzf5d*_ga*MzQ4MTQ1NzA3LjE2NDY2NzY5MjI.*_ga_W34ZJ1Z1Q1*MTY3NzE5MjAyOS4zLjEuMTY3NzE5MjA2Mi4yNy4wLjA.&_ga=2.178521252.1409175695.1677192029-348145707.1646676922. The same protocol was used to measure phosphorylation levels of NFkB using AlphaLISA SureFire Ultra p-NFκB (Ser536) Assay Kit—High Volume Catalog #ALSU-PNFKB-A-HV.
To determine the activity of PROTAC degrader, human monocytic dendritic cells were treated with different doses of drugs as indicated (16 nM, 80 nM, 400 nM and 2000 nM) and the same cells were infected with AAV.SAN024 at MOI of 1e5 for 24 hrs. Cell lysates were analysed for IRAK4 degradation. No significant difference was observed between the control (untretaed/uninfected) cells as compared to the treated and AAV. SAN024 infected cells but the AAV.

## CC[C@@H]1[C@H](F)C(=O)N[C@@H]1COc1nccc2cc(C(N)=O)c(OC)cc12 [zimlovisertib, 1-[[(2S,3S,4S)-3-Ethyl-4-fluoro-5-oxo-2-pyrrolidinyl]methoxy]-7-methoxy-6-isoquinolinecarboxamide]
[1]
  CD44+CD62L+ effector memory cells in PBMCs: significant reduction
  LacZ tetramer positive CD8 T cells in PBMCs: significant reduction

## O=C1CCC(N2C(=O)c3cccc(NCc4cn(CCCNC(=O)c5ccc(-n6cc(NC(=O)c7coc(-c8ccnc(NCC9CC9)c8)n7)c(C(F)(F)F)n6)cc5)cn4)c3C2=O)C(=O)N1 (stereo not drawn) [PROTAC IRAK4 degrader-1]
[2]
  IRAK4 levels (IRAK4 degradation) in cell lysates: reduction of IRAK4 levels at all doses
